Results on nine compounds are retold here after patent publication US8415383B2, “Substituted benzamidines as antibacterial agents” (Biota Scientific Management Pty Ltd, priority 2007, dated 2013).

Converted amounts (≈) assume the structure as drawn. Where two headings read alike, the source gives them in different places. Bounds are passed on as bounds.

In data set [1] the test system is Staphylococcus aureus ATCC29213. Put plainly: Minimal Inhibitory Concentration (MIC) testing, broth microdilution or agar dilution (CLSI). The class given is cell-based. The procedure: Minimal Inhibitory Concentration (MIC) Testing
Compounds of this invention were tested for antimicrobial activity by susceptibility testing in liquid or on solid media. MICs for compounds against each strain were determined by the broth microdilution or agar dilution method according to the guidelines of the Clinical Laboratories and Standards Institute, formerly the National Committee for Clinical Laboratory Standards (Clinical Laboratories and Standards Institute. Methods for Dilution Antimicrobial Susceptibility Tests for Bacteria That Grow Aerobically; Approved Standard—Seventh Edition. Document M7-A7. CLSI, Wayne, Pa., 2006; Clinical Laboratories and Standards Institute.
Activities were scored as ‘A’ if the MIC was less than or equal to 0.125 micrograms/ml, ‘B’ if the MIC was 0.25 to 4 micrograms/ml and ‘C’ if the MIC was greater than 4 micrograms/ml.
(In general: Dilution methods test growth across graded concentrations, often in twofold steps.)

[2] abbreviates: Staphylococcus aureus ATCC29213, MIC scored as class, read-out: Staphylococcus aureus MICs Activity.

The melting point is the temperature of the solid-liquid transition. Turning to `N/C(=N\O)c1c(F)ccc(OCc2nc3cc(Cl)ccc3s2)c1F` [Example 1, 3-[(5-Chloro-1,3-benzothiazol-2-yl)methoxy]-2,6-difluoro-N′-hydroxybenzenecarboximidamide], the melting point was 169 to 170 °C. Moreover, the MIC in data set [1] (setting [2]) is above 4 µg/mL.

Regarding `CO/N=C(\N)c1c(F)ccc(OCc2nc3cc(Cl)ccc3s2)c1F` [Example 2, 3-[(5-Chloro-1,3-benzothiazol-2-yl)methoxy]-2,6-difluoro-N′-methoxybenzenecarboximidamide], the MIC in data set [1] (setting [2]) was 0.25 to 4 µg/mL (≈ 0.651 to 10.4 µM).

On to `N=C(N)c1c(F)ccc(OCc2nc3cc(Cl)ccc3s2)c1F` [Example 3, 3-[(5-Chloro-1,3-benzothiazol-2-yl)methoxy]-2,6-difluorobenzenecarboximidamide], for which, in data set [1] (setting [2]), the MIC was above 4 µg/mL.

Consider `O=c1[nH]c(-c2c(F)ccc(OCc3nc(-c4ccc(Cl)cc4)no3)c2F)no1` [Example 4, 3-{3-[3-(4-Chloro-phenyl)-[1,2,4]oxadiazol-5-ylmethoxy]-2,6-difluorophenyl}-4H-[1,2,4]oxadiazol-5-one], for which, in data set [1] (Staphylococcus aureus, ATCC29213, read-out: Staphylococcus aureus MICs Activity), the MIC is above 4 µg/mL.

Regarding `N/C(=N\O)c1c(F)ccc(OCc2nc(-c3ccc(Cl)cc3)ns2)c1F` [Example 5, 3-[3-(4-Chlorophenyl)-[1,2,4]thiadiazol-5-ylmethoxy]-2,6-difluoro-N-hydroxybenzamidine], in data set [1] (setting [2]), the MIC was below 0.125 µg/mL.

In the case of `CC(=O)O/N=C(\N)c1c(F)ccc(OCc2nc(-c3ccc(Cl)cc3)ns2)c1F` [Example 6], in data set [1] (setting [2]), the MIC is 0.25 to 4 µg/mL (≈ 0.57 to 9.11 µM).

Consider `N=C(N)c1c(F)ccc(OCc2nc(-c3ccc(Cl)cc3)ns2)c1F` [Example 7, 3-((3-(4-chlorophenyl)-1,2,4-thiadiazol-5-yl)methoxy)-2,6-difluorobenzimidamide], for which the MIC in data set [1] (setting [2]) is above 4 µg/mL.

For the compound `CS(=O)(=O)/N=C(\N)c1c(F)ccc(OCc2nc(-c3ccc(Cl)cc3)ns2)c1F` [Example 8], in data set [1] (setting [2]), the MIC is above 4 µg/mL.

As for `COc1ncc(-c2csc(COc3ccc(F)c(/C(N)=N/O)c3F)n2)s1` [Example 9, 2,6-difluoro-N′-hydroxy-3-((2′-methoxy-4,5′-bithiazol-2-yl)methoxy) benzimidamide], the MIC in data set [1] (setting [2]) is below 0.125 µg/mL.
